By IC50 is commonly meant the point on the concentration scale where inhibition reaches its midpoint. As usually defined, the zone of inhibition is the size of the clear area around the sample on an inoculated plate.

The nature of data set [1]: SOD mimetic activity, xanthine/xanthine oxidase system, NBT reduction. The data set is classed as biochemical. The note with it: pH 7.8, read-out: SOD-like activity IC50 (50% inhibition of NBT reduction). As to the method: The SOD-like activities of complexes C1 and C2 were determined by an indirect method using the xanthine/xanthine oxidase system as the source of superoxide radicals. […] The IC50 value for native Cu2Zn2SOD is 0.006 μΜ. Thus, the IC50 values for both complexes are higher than the IC50 value for native Cu2Zn2SOD but are similar to those of complexes with related sulfonamide ligands presented in the literature.
The in vitro SOD mimetic activities of the complexes were assayed using the Oberley and Spitz method with some minor modifications. To generate a reproductible and constant flux of superoxide anions, xanthine (1.5 × 10^−4 M) and xanthine oxidase in 50 mM potassium phosphate buffer, pH = 7.8, were used. The superoxide anions were detected by the reduction of nitro blue tetrazolium (NBT) (5.6 × 10^−5 M) to blue formazane, which was determined spectrophotometrically at 560 nm. Different concentrations of the complexes (50, 25, 12.5, 2, and 0.2 μM) were prepared in 50 mM Tris-HCl buffer, pH = 7.8. For each determination, 0.1 mL complex solution + 0.1 mL xanthine oxidase were added to 0.8 mL of solution containing 0.69 mL potassium phosphate buffer (pH = 7.8), 0.025 mL NBT, and […]. The inhibition percentage of NBT reduction was used to determine the SOD activities of the complexes. The conversion of xanthine to uric acid was measured at 310 nm. The % inhibition of enzyme activity was subtracted from that of NBT. The IC50 values (the concentration of complex needed to yield 50% inhibition of NBT reduction) were determined from plots of % inhibition versus complex concentration. A Specord 200 Plus Spectrophotometer was used to perform the determinations and all reagents were purchased from Sigma-Aldrich.

The subject of data set [2] is Staphylococcus aureus ATCC 6538P. As to the kind of experiment: Disk diffusion method, S. aureus. The data set is classed as cell-based. To be noted: Staphylococcus aureus, ATCC6538P; complexes 5 µL of 1 mg/mL; 25 µg Amoxicillin, 5 µg Norfloxacin; 24 h, 37 °C; read-out: Halo Zone Test (diameter of the inhibition zone). The source says:
(§1) The disk diffusion method was used to determine the antibacterial activity of the C1 and C2 copper complexes on four reference microbial strains, two Gram-positive (Staphylococcus aureus and Bacillus cerreus) and two Gram-negative (Escherichia coli and Pseudomonas aeruginosa) strains. The disk diffusion method was used to determine the antibacterial activity of the C1 and C2 copper complexes. The method was adapted for the purposes of the current study, according to the standards developed by the Clinical and Laboratory Standards Institute. Four reference microbial strains, two Gram-positive (Staphylococcus aureus ATCC […] and Bacillus cerreus ATCC 14579) and two Gram-negative (Escherichia coli ATCC 10536 and Pseudomonas aeruginosa ATCC 27853) strains, were used for in vitro susceptibility testing. These reference microbial strains were obtained from the American Type Culture Collection (ATCC, Manassas, VA, USA). As positive controls, Amoxicillin (Oxoid Ltd., Basingstoke, UK) and Norfloxacin (Sigma-Aldrich) were used. For each of the four species, an initial suspension of bacterial cultures was inoculated on nutrient agar plates (Merck KGaA, Darmstadt, Germany), incubated for 24 h at 37 ± 2 °C and resuspended in a physiological saline buffer to a […] concentration (on a 0.5 McFarland scale), and further inoculated on Muëller Hinton agar plates (Merck KGaA, Darmstadt, Germany). […] After inoculation, the medium surface was dried and 8 wells were radially drilled 1.5 cm from the outer edge, 3 cm apart. From aliquot samples of 1 mg/mL of each copper complex dissolved in DMSO and incorporated in sterile liquid medium, 5 μL was placed in each of the 8 wells and left for 30 min to diffuse into the agar plates. The plates were then incubated for 24 h at 37 ± 2 °C. Then, 25 μg Amoxicillin and 5 μg Norfloxacin served as a positive controls, while DMSO 0.75% was used as a negative control. Readings were conducted by measuring the diameter of the inhibition zone (Halo Zone Test, in mm). The germ sensitivity of the copper complexes was estimated by comparing the diameter of the inhibition area to that generated by the regular antibiotics with known inhibition values. […] All tests were triplicated, and the measured diameters of the inhibition zone were expressed (in mm) as mean ± standard deviation.

For data set [3], the system named is Bacillus cerreus ATCC 14579. As to the kind of experiment: Disk diffusion method, B. cerreus. The data set is classed as cell-based. The note with it: Bacillus, ATCC14579; complexes 5 µL of 1 mg/mL; 25 µg Amoxicillin, 5 µg Norfloxacin; 24 h, 37 °C; read-out: Halo Zone Test (diameter of the inhibition zone).
Description: as §1
Background: In agar diffusion tests the substance spreads into inoculated agar from a disc or well.

The test system of data set [4] is Escherichia coli ATCC 10536. As to the kind of experiment: Disk diffusion method, E. coli. The data set is classed as cell-based. To be noted: Escherichia coli, ATCC10536; complexes 5 µL of 1 mg/mL; 25 µg Amoxicillin, 5 µg Norfloxacin; 24 h, 37 °C; read-out: Halo Zone Test (diameter of the inhibition zone).
Description: as §1

The subject of data set [5] is Pseudomonas aeruginosa ATCC 27853. As to the kind of experiment: Disk diffusion method, P. aeruginosa. The data set is classed as cell-based. On the set-up: key to Halo Zone Test, class symbol: R = resistant. To be noted: 24 h, 37 °C.
Description: as §1

Data set [6] concerns HeLa, WM35, HFL1 cells. The data set is classed as cell-based. As to the method: (§2) Three cell lines were used to determine the cytotoxicity of the complexes, a human cervical carcinoma line (HeLa), a human radical growth phase melanoma cell line (WM35), and a normal fibroblastic epithelial cell line (HFL1) using the MTT method. The cells were exposed to C1 and C2 complexes in different concentrations (50, 25, 12.5, 2, and 0.2 µM) at 24, 48, and 72 h. As positive contro, cisplatin was used.
This means that the cyytotoxicity is given by the complexes and that the chelation of the ligands with the copper ion is essential for the cytotoxicity of the complexes.
The cytotoxicity assays were performed using the MTT assay (3-(4,5-dimethylthiazol-2-yl)-2,5-diphenyl tetrazolium bromide-Sigma Aldrich). Cells were plated at a density of 1 × 10^5 cells/well in 96-well plates for 24 h in normal propagation media. The cultures were then exposed to C1 and C2 complexes in different concentrations (50, 25, 12.5, 2, and 0.2 µM). The complexes were first solubilized in DMSO (Sigma) and then serial dilutions in media were performed until the final concentration of DMSO was less than 1%. […] The cellular viability was determined using the MTT assay at 24, 48, and 72 h, respectively. Formazan particles were solubilized with DMSO and absorbances were determined at 550 nm using a microplate reader (Bio-Rad, Hercules, CA, USA). […]

Data set [7] has as its system human cervical carcinoma line (HeLa). Nature of the data set: MTT cytotoxicity assay, HeLa. Format: cell-based. To be noted: HeLa cells. As to the method: as §2
(§3) To determine the cytotoxicity of the copper complexes, three cell lines were used: a human cervical carcinoma line (HeLa), a human radical growth phase melanoma cell line (WM35), and a normal fibroblastic epithelial cell line (HFL1). The cell lines were obtained from ATCC (American Type Cell Collection, Manassas, VA 20110-2209, USA) and were maintained in DMEM (Sigma-Aldrich, Saint Louis, Missouri, USA) supplemented with 10% fetal bovine serum (Hyclone), 1 mM glutamine (Sigma-Aldrich), and 1% antibiotic antimycotic 100× (Sigma-Aldrich). The cells were cultured at 37 °C in an atmosphere of 5% CO2 and 95% relative humidity.
(§4) The cytotoxicity assays were performed using the MTT assay (3-(4,5-dimethylthiazol-2-yl)-2,5-diphenyl tetrazolium bromide-Sigma Aldrich). Cells were plated at a density of 1 × 10^5 cells/well in 96-well plates for 24 h in normal propagation media. The cultures were then exposed to C1 and C2 complexes in different concentrations (50, 25, 12.5, 2, and 0.2 µM). The complexes were first solubilized in DMSO (Sigma) and then serial dilutions in media were performed until the final concentration of DMSO was less than 1%. As a positive control, cisplatin (Ebewe Pharma Ges.m.b.H. Nfg. KG, Austria) was used, in the same concentrations as the complexes. As a negative control, cell lines cultivated in normal expansion medium with the same amount of DMSO added were used. The cellular viability was determined using the MTT assay at 24, 48, and 72 h, respectively. Formazan particles were solubilized with DMSO and absorbances were determined at 550 nm using a microplate reader (Bio-Rad, Hercules, CA, USA). The cytotoxic activity, expressed as IC50 values representing the complex solution required to inhibit 50% of the cell proliferation, were calculated from the calibration curve by nonlinear regression. Each experiment was carried out in triplicate.
(In general: Tetrazolium dyes change colour on reduction, which living cells bring about.)

The test system of data set [8] is human radical growth phase melanoma cell line (WM35). As to the kind of experiment: MTT cytotoxicity assay, WM35. The data set is classed as cell-based. To be noted: WM35 cells, MTT. As for the experimental part:
as §2, §3, §4

Data set [9] deals with normal fibroblastic epithelial cell line (HFL1). Nature of the data set: MTT cytotoxicity assay, HFL1. The note with it: HFL1 cells. Format: cell-based. As to the method: as §2, §3, §4

Turning to “Cu2Zn2SOD: native Cu2Zn2 superoxide dismutase enzyme, comparison for SOD-like activity”, the IC50 in data set [1] turned out to be 0.006 µM.
`CCn1cc(C(=O)O)c(=O)c2cc(F)c(N3CCNCC3)cc21` [Norfloxacin, reference compound]: the zone of inhibition at 1000 µg/mL in [2] worked out at 16 ± 0.21 mm; in data set [3], 18 ± 0.19 mm; in [4], 20 ± 0.11 mm; in [5] (Pseudomonas aeruginosa, ATCC27853, complexes 5 µL of 1 mg/mL, 5 µg Norfloxacin, read-out: Halo Zone Test (diameter of the inhibition zone)) it was 25 ± 0.24 mm.
With `CC1(C)S[C@@H]2[C@H](NC(=O)[C@H](N)c3ccc(O)cc3)C(=O)N2[C@H]1C(=O)O` [Amoxicillin, reference compound], the zone of inhibition at 1000 µg/mL was found to be 19 ± 0.14 mm in data set [2], 13 ± 0.22 mm in data set [3] and 18 ± 0.09 mm in [4]. Further, the “Halo Zone Test, class symbol” value in data set [5] (25 µg Amoxicillin) was “R”.
With `CCc1nnc(NS(=O)(=O)c2cccc3ccccc23)s1` [HL2, N-(5-ethyl-[1,3,4]–thiadiazole–2-yl)-naphtalenesulfonamide], the “cytotoxicity of the free ligands” value in [6] was “no significant cytotoxicity”.
Consider `N.N.[Cl][Pt][Cl]` [Cisplatin, cisplatin, reference compound], for which the IC50 in data set [7] (24 h) was 21.03 ± 0.14 µM; in [7] (48 h) it was 6.02 ± 0.19 µM; in [7] (72 h), 2.39 ± 0.04 µM; in [8] (24 h), 26.1 ± 0.43 µM; in data set [8] (48 h), 11.15 ± 0.09 µM; in data set [8] (72 h), 5.98 ± 0.03 µM. In addition, the IC50 in [9] (24 h) came out at 13.2 ± 0.89 µM; in [9] (48 h), 3.99 ± 0.22 µM; in data set [9] (72 h), 1.18 ± 0.13 µM.
With `Cc1ccc(-c2nnc(NS(=O)(=O)c3cccc4ccccc34)s2)cc1` [HL1, N-(5-(4-methylphenyl)-[1,3,4]–thiadiazole–2-yl)-naphtalenesulfonamide], the “cytotoxicity of the free ligands” value in [6] is reported as “no significant cytotoxicity”.

Values taken from article PMC9144936, “New Cu^+2 Complexes with N-Sulfonamide Ligands: Potential Antitumor, Antibacterial, and Antioxidant Agents” (Molecules, 2022).
